Experimental data as given in the NIST ThermoML archive (doi:10.1016/j.jct.2015.12.025).

Test: refractive index (Na D-line) (dimensionless); xn = mol fraction of the nth substance listed
Settings: 102 kPa, Liquid, Standard Abbe refractometry

C[Si]1(CCC(F)(F)F)O[Si](C)(CCC(F)(F)F)O[Si](C)(CCC(F)(F)F)O1 (stereo not given) + CCc1ccccc1
refractive index
Settings | 308.15 K | 313.15 K | 318.15 K | 323.15 K
x1 = 0.05 | 1.46829 | 1.46563 | 1.46295 | 1.46034
x1 = 0.1 | 1.4527 | 1.45013 | 1.44755 | 1.445
x1 = 0.15 | 1.43984 | 1.43731 | 1.43479 | 1.43233
x1 = 0.1967 | 1.42972 | 1.42722 | 1.42478 | 1.42233
x1 = 0.25 | 1.41987 | 1.41742 | 1.41503 | 1.41266
x1 = 0.2998 | 1.41202 | 1.40962 | 1.40725 | 1.40493
x1 = 0.35 | 1.40515 | 1.40278 | 1.40047 | 1.39817
x1 = 0.377 | 1.40179 | 1.39946 | 1.39713 | 1.39485
x1 = 0.4437 | 1.39447 | 1.39219 | 1.38991 | 1.38768
x1 = 0.5001 | 1.38911 | 1.38686 | 1.38464 | 1.38243
x1 = 0.5492 | 1.38496 | 1.38275 | 1.38053 | 1.37836
x1 = 0.5994 | 1.3811 | 1.37891 | 1.37672 | 1.37458
x1 = 0.6499 | 1.3776 | 1.37545 | 1.37326 | 1.37112
x1 = 0.6997 | 1.37445 | 1.37234 | 1.37017 | 1.36807
x1 = 0.7502 | 1.37152 | 1.36941 | 1.36729 | 1.36521
x1 = 0.7999 | 1.36888 | 1.36677 | 1.36471 | 1.36262
x1 = 0.8498 | 1.36642 | 1.36437 | 1.36228 | 1.36025
x1 = 0.9002 | 1.36413 | 1.3621 | 1.36007 | 1.35801
x1 = 0.9498 | 1.36206 | 1.36004 | 1.35799 | 1.356
x1 = 1 | 1.36011 | 1.35808 | 1.35608 | 1.35407
